From US20250082766A1, “TREATMENT OF BRAIN TUMORS BY TARGETING THE CHOLESTEROL PATHWAY IN ASTROCYES” (Ramot at Tel-Aviv University Ltd., priority 2022, published 2025)

Experiments:
glioma = conditions: OXPHOS-targeting drugs; cited from earlier work
[1] = tested on: GL261 and CT-2A glioma cells; test: Cell viability assay (Annexin V/DAPI FACS) of glioma cells; format: cell-based, mouse; conditions: GL261 or CT-2A in LPDS-media; cholesterol 250 ng/ml for 5 days; FIGS. 5F-G
Description: FIGS. 5A-N illustrate that astrocyte-derived cholesterol supports glioma survival. (FIGS. 5A-D) Real-time changes in the ECAR (FIGS. 5A-B) and oxygen consumption rate (OCR) (FIGS. 5C-D) of GL261 glioma cells, cultured in media supplemented with full serum (FCS, fetal calf serum) or lipoprotein-deprived serum (LPDS, Lipoprotein-deficient serum) for 18 hours and measured using Seahorse. Oligo, oligomycin; FCCP, carbonyl cyanide4-(trifluoromethoxy) phenylhydrazone; R/A, rotenone plus antimycin A; 2-DG, 2-deoxy-d-glucose. Glycolysis, glycolytic capacity and glycolytic reserve were extracted from the ECAR reading, and basal respiration, adenosine triphosphate (ATP) production, Maximal respiration, and spare respiratory capacity were determined based on OCR. Data are representative of two independent experiments (n=6 technical replicates per experiment). (FIG. 5E) Percentage of cell death of GL261 and CT-2A glioma cells, or primary astrocytes, cultured in FCS or LPDS for 5 days; as determined by Annexin-V assay (n=5 independent experiments). […] Representative flow cytometry plots of Annexin-V/DAPI staining from each group are shown in FIG. 5F and quantification analyses of cholesterol rescue are in FIG. 5G (n=5 biologically independent experiments). (FIGS. 5H-K) Representative images and quantification of LDLR expression (Immunoblot, FIGS. 5H-I) and cell death via FACS analysis of Annexin V/DAPI staining (FIGS. 5J-K) in response to endogenous LXR agonists (24-OHC) or Mock (DMSO) treatment in GL261 and CT-2A cells (n=3 biologically independent experiments). […] (FIGS. 5L-M) Representative flow cytometry plots of murine GL261 and CT-2A glioma cells co-cultured for 5 days with primary mouse astrocytes are shown in FIG. 5L and quantification analyses in FIG. 5M (n=4 biologically independent experiments). (FIG. 5N) quantification analyses of human U87EGFRvIII (U87) glioma cells co-cultured with human primary astrocytes for 5 days (n=3 biologically independent experiments). […]

[2] = tested on: reactive astrocytes / GL261 glioma; test: Reactive astrocyte depletion with GCV in GL261-bearing WT or Gfap-TK mice; format: in vivo, mouse
Source text: FIGS. 1A-I illustrate that depletion of Tumor-associated astrocytes (TAAs) regress glioblastoma progression. (FIG. 1A) Representative immunofluorescence images of reactive TAAs stained for GFAP (cyan) crowning a glioblastoma (GBM) tumor (GFP^+-GL261, white), and nuclei (DAPI, yellow). The right image is an expansion of the area marked by the white box. (n=3 biologically independent experiments, 3 mice per group). Scale bar, 1000 m; (FIGS. 1B-I) WT (wild type), or Gfap-TK GBM-bearing mice were treated daily with Ganciclovir (GCV, 25 mg/kg) from day 10 until the experimental endpoint as illustrated in FIG. 1B. (FIG. 1C) representative immunofluorescence images of reactive astrocyte depletion at the tumor margins (GFP^+-GL261, white), as detected by GFAP staining (cyan). Scale bars, 500 m. Data are representative of three independent experiments with n=4 mice/group. (FIGS. 1D-G) Tumor size in GCV-treated WT or Gfap-TK GBM-bearing littermates. (FIGS. 1D-E) Representative images of GL261-derived bioluminescence from each group are shown in FIG. 1D and quantification of tumor size in FIG. 1E. Data are representative of five independent experiments with n=6 mice/group. (FIGS. 1F-G) Representative images from each group, 17 days after GL261 cell implantation, are shown in FIG. 1F with quantification of tumor size in FIG. 1G, tumor (GL261 cells in purple), and nuclei (DAPI; white). Scale bar, 1000 m. Data are representative of three independent experiments with n=5 mice/group. (FIG. 1H) Bodyweight assessment of mice from FIGS. 1D-E. (FIG. 1I) Kaplan-Meier curves assessing overall survival. Data are representative of three independent experiments with n=8 mice/group. Data in FIGS. 1D-H are shown as mean±s.e.m. P values were determined by two-way ANOVA (FIGS. 1D-H) or Log rank (Mantel-Cox) test (FIG. 1I). *P<0.05, **P<0.01, ***P<0.001, n.s. not significant.
For intracranial mouse glioma, mice were anesthetized, positioned in a Stereotaxic Alignment System, and injected with 1.5×10^4 GL261 or CT-2A cells in 2 μl of DMEM. Injections were made to the right frontal lobe, approximately 2.5 mm lateral and 0.1 mm caudal from bregma at a depth of 3 mm. In-vivo bioluminescence imaging, following XenoLight D-luciferin Potassium Salt administration (150 mg/kg) i.p. administration, was determined using IVIS Spectrum system (PerkinElmer). Ganciclovir (GCV, Cymevene, Roche #SAP-10051872; 25 mg/kg), Diphtheria-toxin (DT, Sigma-Aldrich, #D0564; 1100 ng/mice), or vehicle control (PBS) were administered daily following tumor establishment (day 10), as previously described (Mayo, L., et al. Nat Med (2014) 20: 1147-1156). CD8^+ T cell depletion was performed using an anti-CD8 monoclonal antibody ([…], Bioxcell) or an isotype control monoclonal antibody (2A3, Bioxcell), as previously described (Takenaka, M. C. et al. Control of tumor-associated macrophages and T cells in glioblastoma via AHR and CD39. Nat Neurosci 22, 729-740 (2019)). GBM-bearing mice were intraperitoneally injected (0.1 mg/mouse) with an anti-CD8 or an isotype control mAbs, 1 day before, and 7 days after, GCV administration. CD8 T-cell depletion was validated by FACS analysis using a Sony SH800 FACS instrument (Sony Biotechnology). Data analysis was performed using FlowJo v10 (TreeStar, USA). The following reagents were used for analysis: anti-CD45 (1:100; 30-F11, Biolegend, #103106), anti-CD3[…] (1:50; 145-2C11, Biolegend #100335), and anti-CD8a (1:100; 53-6.7, Biolegend, #100765).
To study the role of TAAs in glioblastoma, the course of tumor progression was analyzed in mice expressing the herpes simplex virus thymidine kinase (HSVtk) under the Gfap promotor (Gfap-TK), in which Ganciclovir (GCV) administration can deplete reactive astrocytes. For this purpose, GFP^+GL261-Luc (GL261) was intracranially injected […], into syngeneic C57Bl/6 WT or into Gfap-TK littermates. […]

## CN(C)C(=N)N=C(N)N [metformin]
glioma
  glioma proliferation and cell death: inhibit glioma proliferation and induce cell death

## CC(C)CCC[C@@H](C)[C@H]1CC[C@H]2[C@@H]3CC=C4C[C@@H](O)CC[C@]4(C)[C@H]3CC[C@]12C [cholesterol]
[1]
  rescue of glioma viability from lipoprotein-bound cholesterol deprivation: overcame the deleterious effects of lipoprotein-bound cholesterol deprivation on glioma viability

## Nc1nc(O)c2ncn(COC(CO)CO)c2n1 [GCV, Ganciclovir]
[2]; GBM-bearing Gfap-TK mice (not in WT mice), GCV 25 mg/kg daily from day 10, FIG. 1C
  reactive astrocytes around the tumors (GFAP staining): specific ablation of reactive astrocytes
[2]; GCV-treated GL261-bearing Gfap-TK mice vs WT littermates, FIG. 1H
  weight loss: significantly attenuates the weight loss
[2]; GCV-treated GL261-bearing Gfap-TK mice vs WT littermates, FIG. 1I
  survival: dramatically improves their survival
[2]; GCV-treated GL261-bearing Gfap-TK vs WT mice, day 17, FIGS. 3D-E
  accumulation of IBA-1+ TAMs in the TME: significantly reduces
[2]; GL261-bearing Gfap-TK mice, GCV 25 mg/kg daily from day 10, FIGS. 1D-G
  tumor size (bioluminescence, histology): dramatic tumor regression
[2]; GL261-bearing WT mice, GCV 25 mg/kg daily vs vehicle, FIG. 7A
  GBM progression (tumor size, bioluminescence): neither GCV treatment of WT mice nor genetic insertion of the HSVtk into Gfap-TK mice (without GCV treatment) affected GBM progression
[2]; GL261-bearing WT mice, GCV vs vehicle, FIG. 7E
  survival: had no effect on survival

## Cc1nc(-c2nc(-c3ccc(OC(F)(F)F)cc3)no2)nn1Cc1cccc(N2CCC(S(C)(=O)=O)CC2)c1 [IACS-010759]
glioma
  glioma proliferation and cell death: inhibit glioma proliferation and induce cell death
